The test system of data set [1] is skin. To be noted: topical, 0.1% versus 0.025%; cited from earlier work.
Data set [2] is described as follows: Solubility of retinoids in diethylhexyl 2,6-naphthalate (HallBrite TQ). Type of data set: physicochemical. To be noted: organic solvent or mixture, read-out: solubility in diethylhexyl diester of 2,6-naphthalene-dicarboxylic acid. How it is done:
Retinoids are lipophilic. […] For example, isotretinoin is soluble in the diethylhexyl diester of 2,6-naphthalene-dicarboxylic acid (diethylhexyl 2,6-naphthalate, HallBrite TQ, C. P. Hall) at approximately 6.7 mg/ml, and tretinoin is soluble in the same diester at approximately 5.6 mg/ml.

In data set [3] the test system is skin. To be noted: topical, 0.1% versus 0.025%; cited from earlier work. The source holds these as a separate data set.
The conditions of data set [4]: cited from earlier work.
The conditions of data set [5]: cited from earlier work. The source holds these as a separate data set.

Molecules are shown by their SMILES. Values after ≈ are worked out from the molar mass of the structure shown.

Take `CC1=C(/C=C/C(C)=C/C=C/C(C)=C\C(=O)O)C(C)(C)CCC1` [isotretinoin, 13-cis-retinoic acid]: the therapeutic effectiveness result in data set [1] is reported as “more effective”. Besides, the solubility in data set [2] was roughly 6700 µg/mL (≈ 22.3 mM). Besides, the degree of irritation result in data set [3] is “more irritating”.
Turning to `CC1=C(/C=C/C(C)=C/C=C/C(C)=C/C(=O)O)C(C)(C)CCC1` [tretinoin, all-trans-retinoic acid], the “stability of aqueous solutions” value in data set [4] (aqueous solutions) is reported as “deteriorate quickly”. In addition, the “stability of solutions in pure organic solvents” value in data set [4] (pure organic solvents, stored in the dark) is on record as “stable”. The solubility in data set [2] was roughly 5600 µg/mL (≈ 18.6 mM). In data set [5] (chloroform), the solubility in chloroform result is “slightly soluble”. For the same compound, in data set [5] (dimethyl sulfoxide), the “solubility in dimethyl sulfoxide” value was 40000 µg/mL (≈ 133 mM). Moreover, the solubility in ether result in data set [5] (ether) is reported as “sparingly soluble”. Besides, the “solubility in methylene chloride” value in data set [5] (methylene chloride) is reported as “soluble”. Also, the solubility in water entry in data set [5] (water) is “practically insoluble”.

As usually defined, the solubility is how much of the substance goes into solution per volume.

The values are drawn from patent US6551605B2, “Diesters or polyesters of naphthalene dicarboxylic acid as solubilizer/stabilizer for retinoids” (Haarmann & Reimer, priority 2001, dated 2003).
